pIC50: −log10 of the molar value.
Columns and labels:
[1] = molecular target: T1, InsR (Homo sapiens, UniProt P06213); test: ADP-Glo Kinase Assay, InsR; format: biochemical; conditions: ADP-Glo Kinase Assay Kit
T1 construct: purchased Promega V9401
Experimental: (§1) Briefly, a kinase test was performed and quantified according to the manufacturer's instructions after treating the adamantane derivative compound of the present invention by using the ADP-Glo™ Kinase Assay Kit (FAK, Promega, V1971; Pyk2, Promega, V4083; InsR, Promega, V9401) containing each kinase of Promega.

[2] = molecular target: T2, FAK (Homo sapiens, UniProt Q05397); test: FAK [pY397] ELISA in MDA-MB-231 cells; format: cell-based; design: endogenous in cells; host or cells: MDA-MB-231; conditions: MDA-MB-231, treated for one hour, Table 2; read-out: FAK inhibitory activity (IC50)
Experimental: Briefly, an enzyme-linked immunosorbent assay test was performed according to the manufacturer's instructions by using the FAK (Phospho) [pY397] Human ELISA Kit (Thermo Fisher Scientific, KH00441) after dispensing 1×10^6 MDA-MB-231 cells into each well of a 6-well plate, inducing cell stabilization for 24 hours, and treating each compound at different concentrations (o, 1, 5, 10, 50, 100, 500, 1000 nM) for one hour.

[3] = molecular target: T2, FAK; test: ADP-Glo Kinase Assay, FAK; format: biochemical; design: purchased Promega V1971; conditions: ADP-Glo Kinase Assay Kit
Experimental: as §1

[4] = molecular target: T3, Pyk2 (Homo sapiens, UniProt Q14289); test: ADP-Glo Kinase Assay, Pyk2; format: biochemical; conditions: ADP-Glo Kinase Assay Kit
T3 construct: purchased Promega V4083
Experimental: as §1

T3 sequence (Q14289 whole entry): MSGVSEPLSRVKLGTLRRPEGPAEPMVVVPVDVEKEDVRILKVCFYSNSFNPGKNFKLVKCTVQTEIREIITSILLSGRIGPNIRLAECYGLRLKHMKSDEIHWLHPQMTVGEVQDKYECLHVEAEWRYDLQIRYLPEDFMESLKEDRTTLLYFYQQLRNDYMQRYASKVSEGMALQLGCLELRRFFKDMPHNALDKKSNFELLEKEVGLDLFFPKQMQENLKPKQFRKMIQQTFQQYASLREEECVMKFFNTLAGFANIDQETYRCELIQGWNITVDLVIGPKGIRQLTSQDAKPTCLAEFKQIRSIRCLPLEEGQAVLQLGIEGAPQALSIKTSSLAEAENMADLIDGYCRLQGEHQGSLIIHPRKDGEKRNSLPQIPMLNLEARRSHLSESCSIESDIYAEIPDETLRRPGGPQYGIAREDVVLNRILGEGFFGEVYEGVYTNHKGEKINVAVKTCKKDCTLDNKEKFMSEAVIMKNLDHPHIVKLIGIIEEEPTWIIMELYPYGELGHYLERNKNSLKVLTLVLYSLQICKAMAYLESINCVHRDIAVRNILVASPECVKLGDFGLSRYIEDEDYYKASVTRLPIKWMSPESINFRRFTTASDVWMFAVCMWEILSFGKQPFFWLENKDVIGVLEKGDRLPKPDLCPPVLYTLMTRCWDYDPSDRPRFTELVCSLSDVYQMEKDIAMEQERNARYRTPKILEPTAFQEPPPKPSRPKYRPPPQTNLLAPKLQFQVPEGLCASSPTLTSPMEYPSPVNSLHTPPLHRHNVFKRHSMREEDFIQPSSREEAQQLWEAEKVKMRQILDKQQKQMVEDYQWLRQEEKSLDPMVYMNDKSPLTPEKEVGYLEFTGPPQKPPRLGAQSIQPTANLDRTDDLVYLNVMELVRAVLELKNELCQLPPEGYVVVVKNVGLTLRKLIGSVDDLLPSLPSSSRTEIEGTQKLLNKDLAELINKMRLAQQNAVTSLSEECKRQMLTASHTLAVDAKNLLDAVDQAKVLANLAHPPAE
T2 sequence (Q05397 whole entry): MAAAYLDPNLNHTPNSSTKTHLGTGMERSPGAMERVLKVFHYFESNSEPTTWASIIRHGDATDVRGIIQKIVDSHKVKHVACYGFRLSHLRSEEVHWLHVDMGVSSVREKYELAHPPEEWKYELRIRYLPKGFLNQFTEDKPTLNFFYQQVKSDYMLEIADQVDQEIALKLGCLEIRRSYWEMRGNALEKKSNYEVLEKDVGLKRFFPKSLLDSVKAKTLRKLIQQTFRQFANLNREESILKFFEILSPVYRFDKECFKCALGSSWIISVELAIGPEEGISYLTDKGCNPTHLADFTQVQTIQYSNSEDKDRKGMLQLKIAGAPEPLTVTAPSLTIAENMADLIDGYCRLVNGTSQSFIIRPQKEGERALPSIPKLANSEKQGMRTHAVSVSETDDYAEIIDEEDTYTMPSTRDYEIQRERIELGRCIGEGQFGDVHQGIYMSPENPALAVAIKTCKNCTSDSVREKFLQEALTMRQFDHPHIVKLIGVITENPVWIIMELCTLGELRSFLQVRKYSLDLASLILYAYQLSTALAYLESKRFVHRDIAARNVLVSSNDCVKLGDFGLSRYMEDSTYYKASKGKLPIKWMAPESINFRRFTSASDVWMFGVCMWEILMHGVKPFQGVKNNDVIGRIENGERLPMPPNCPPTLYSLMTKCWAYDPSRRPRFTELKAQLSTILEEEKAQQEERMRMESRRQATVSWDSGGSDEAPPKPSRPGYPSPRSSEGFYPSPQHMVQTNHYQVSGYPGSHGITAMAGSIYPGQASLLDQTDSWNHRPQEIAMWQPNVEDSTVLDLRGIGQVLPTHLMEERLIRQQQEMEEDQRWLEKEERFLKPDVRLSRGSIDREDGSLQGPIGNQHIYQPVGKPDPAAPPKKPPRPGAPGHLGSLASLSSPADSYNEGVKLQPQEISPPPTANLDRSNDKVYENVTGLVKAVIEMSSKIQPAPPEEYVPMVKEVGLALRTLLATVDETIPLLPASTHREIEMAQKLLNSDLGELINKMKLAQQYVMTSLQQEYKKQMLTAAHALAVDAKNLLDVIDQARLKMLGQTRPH
T1 sequence (P06213 28-1382): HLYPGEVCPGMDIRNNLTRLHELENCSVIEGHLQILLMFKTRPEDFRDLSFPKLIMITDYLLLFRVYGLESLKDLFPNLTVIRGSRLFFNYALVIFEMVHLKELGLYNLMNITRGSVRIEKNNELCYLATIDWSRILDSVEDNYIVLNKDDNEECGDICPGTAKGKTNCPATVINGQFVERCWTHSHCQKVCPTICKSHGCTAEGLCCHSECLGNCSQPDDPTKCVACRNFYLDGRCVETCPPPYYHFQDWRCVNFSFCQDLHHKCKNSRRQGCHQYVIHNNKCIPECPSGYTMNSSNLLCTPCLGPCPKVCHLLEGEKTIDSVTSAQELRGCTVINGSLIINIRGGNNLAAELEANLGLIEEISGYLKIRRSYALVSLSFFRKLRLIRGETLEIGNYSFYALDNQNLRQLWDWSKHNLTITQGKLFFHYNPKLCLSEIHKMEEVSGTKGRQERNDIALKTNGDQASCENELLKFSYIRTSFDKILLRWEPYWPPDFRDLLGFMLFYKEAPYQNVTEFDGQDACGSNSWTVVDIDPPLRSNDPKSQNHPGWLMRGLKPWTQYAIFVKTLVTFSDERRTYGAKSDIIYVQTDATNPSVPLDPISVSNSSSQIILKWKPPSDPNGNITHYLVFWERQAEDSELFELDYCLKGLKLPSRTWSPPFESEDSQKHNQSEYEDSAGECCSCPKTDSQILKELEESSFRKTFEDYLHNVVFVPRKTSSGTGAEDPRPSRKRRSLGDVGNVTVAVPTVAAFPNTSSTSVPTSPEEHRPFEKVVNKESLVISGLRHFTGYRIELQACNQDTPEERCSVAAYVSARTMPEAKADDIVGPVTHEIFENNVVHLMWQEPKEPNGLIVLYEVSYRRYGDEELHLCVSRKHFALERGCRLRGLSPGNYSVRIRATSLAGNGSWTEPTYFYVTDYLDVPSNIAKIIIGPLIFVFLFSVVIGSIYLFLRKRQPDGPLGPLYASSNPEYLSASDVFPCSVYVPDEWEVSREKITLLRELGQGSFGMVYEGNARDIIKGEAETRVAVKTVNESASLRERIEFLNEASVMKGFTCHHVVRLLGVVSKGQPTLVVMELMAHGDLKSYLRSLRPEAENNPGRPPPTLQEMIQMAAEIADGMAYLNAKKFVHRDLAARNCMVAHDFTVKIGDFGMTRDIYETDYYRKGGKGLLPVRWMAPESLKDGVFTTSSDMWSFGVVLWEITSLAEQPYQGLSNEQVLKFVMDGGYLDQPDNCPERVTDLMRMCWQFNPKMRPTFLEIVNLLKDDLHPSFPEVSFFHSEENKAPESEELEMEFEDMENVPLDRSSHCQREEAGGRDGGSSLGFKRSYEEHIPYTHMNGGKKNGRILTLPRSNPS

| pIC50 [1] | pIC50 [2] | pIC50 [3] | pIC50 [4] | Structure (SMILES) |
| --- | --- | --- | --- | --- |
| < 5.00 | 6.95 | 6.69 | – | CNC(=O)c1cccc(C)c1Nc1nc(Nc2ccc(NC3C4CC5CC(C4)CC3C5)cc2OC)ncc1C(F)(F)F (stereo not shown) [Compound 2, 2-((2-((4-(adamantan-2-ylamino)-2-methoxyphenyl)amino)-5-(trifluoromethyl)pyrimidin-4-yl)amino)-N,3-dimethylbenzamide] |
| 5.33 | 7.49 | 7.16 | – | CNC(=O)c1cccc(C)c1Nc1nc(Nc2ccc(N3CCN([C@H]4C5CC6CC4C[C@@](O)(C6)C5)CC3)cc2OC)ncc1C(F)(F)F [Compound 5, 2-((2-((4-(4-((cis)-5-hydroxyadamantan-2-yl)piperazin-1-yl)-2-methoxyphenyl)amino)-5-(trifluoromethyl)pyrimidin-4-yl)amino)-N,3-dimethylbenzamide] |
| < 5.00 | 6.92 | 7.27 | – | CNC(=O)c1cccc(C)c1Nc1nc(Nc2ccc(NC3CCN([C@H]4C5CC6CC4C[C@@](O)(C6)C5)CC3)cc2OC)ncc1C(F)(F)F [Compound 8, 2-((2-((4-((1-((cis)-5-hydroxyadamantan-2-yl)piperidin-4-yl)amino)-2-methoxyphenyl)amino)-5-(trifluoromethyl)pyrimidin-4-yl)amino)-N,3-dimethylbenzamide] |
| < 5.00 | – | 7.01 | – | CNC(=O)c1cccc(C)c1Nc1nc(Nc2ccc(OC3CCN(C4C5CC6CC(C5)CC4C6)CC3)cc2OC)ncc1C(F)(F)F (stereo not shown) [Compound 9, 2-((2-((4-((1-(adamantan-2-yl)piperidin-4-yl)oxy)-2-methoxyphenyl)amino)-5-(trifluoromethyl)pyrimidin-4-yl)amino)-N,3-dimethylbenzamide] |
| – | – | 7.24 | – | CNC(=O)c1cccc(C)c1Nc1nc(Nc2ccc(O[C@]34CC5CC(C3)[C@@H](N3CC[C@H](NC(C)=O)C3)C(C5)C4)cc2OC)ncc1C(F)(F)F [Compound 14, 2-((2-((4-(((trans)-4-((S)-3-acetamidopyrrolidin-1-yl)adamantan-1-yl)oxy)-2-methoxyphenyl)amino)-5-(trifluoromethyl)pyrimidin-4-yl)amino)-N,3-dimethylbenzamide] |
| – | – | 7.03 | – | CNC(=O)c1cccc(C)c1Nc1nc(Nc2ccc(OC3C4CC5CC3CC(C(=O)NC)(C5)C4)cc2OC)ncc1C(F)(F)F (stereo not shown) [Compound 18, 4-(3-methoxy-4-((4-((2-methyl-6-(methylcarbamoyl)phenyl)amino)-5-(trifluoromethyl)pyrimidin-2-yl)amino)phenoxy)-N-methyladamantan-1-carboxamide] |
| – | – | 6.90 | – | CNC(=O)c1cccc(C)c1Nc1nc(Nc2ccc(OC3C4CC5CC3CC(C(=O)N3CCOCC3)(C5)C4)cc2OC)ncc1C(F)(F)F (stereo not shown) [Compound 19, 2-((2-((2-methoxy-4-((5-(morpholin-4-carbonyl)adamantan-2-yl)oxy)phenyl)amino)-5-(trifluoromethyl)pyrimidin-4-yl)amino)-N,3-dimethylbenzamide] |
| – | 6.82 | 7.00 | – | CNC(=O)c1cccc(C)c1Nc1nc(Nc2ccc(OC3C4CC5CC3CC(C(=O)N3CCN(C)CC3)(C5)C4)cc2OC)ncc1C(F)(F)F (stereo not shown) [Compound 20, 2-((2-((2-methoxy-4-((5-(4-methylpiperazin-1-carbonyl)adamantan-2-yl)oxy)phenyl)amino)-5-(trifluoromethyl)pyrimidin-4-yl)amino)-N,3-dimethylbenzamide] |
| – | – | 7.24 | – | CNC(=O)c1cccc(C)c1Nc1nc(Nc2ccc(NC3C4CC5CC3CC(C(=O)N3CCOCC3)(C5)C4)cc2OC)ncc1C(F)(F)F (stereo not shown) [Compound 22, 2-((2-((2-methoxy-4-((5-(morpholin-4-carbonyl)adamantan-2-yl)amino)phenyl)amino)-5-(trifluoromethyl)pyrimidin-4-yl)amino)-N,3-dimethylbenzamide] |
| – | 6.63 | 7.11 | – | CNC(=O)c1cccc(C)c1Nc1nc(Nc2ccc(NC3C4CC5CC3CC(C(=O)N3CCN(C)CC3)(C5)C4)cc2OC)ncc1C(F)(F)F (stereo not shown) [Compound 23, 2-((2-((2-methoxy-4-((5-(4-methylpiperazin-1-carbonyl)adamantan-2-yl)amino)phenyl)amino)-5-(trifluoromethyl)pyrimidin-4-yl)amino)-N,3-dimethylbenzamide] |
| < 5.00 | – | 7.54 | 7.19 | CNC(=O)c1cccc(C)c1Nc1nc(Nc2ccc(NC(=O)[C@]34CC5CC(C3)[C@H](N3CC[C@H](NC(C)=O)C3)C(C5)C4)cc2OC)ncc1C(F)(F)F [Compound 28, (cis)-4-((S)-3-acetamidopyrrolidin-1-yl)-N-(3-methoxy-4-((4-((2-methyl-6-(methylcarbamoyl)phenyl)amino)-5-(trifluoromethyl)pyrimidin-2-yl)amino)phenyl) adamantan-1-carboxamide] |
| 5.42 | – | – | 7.74 | CNC(=O)c1cccc(C)c1Nc1nc(Nc2ccc(NC(=O)[C@]34CC5CC(C3)[C@@H](N3CC[C@H](N)C3)C(C5)C4)cc2OC)ncc1C(F)(F)F [Compound 30, (trans)-4-((S)-3-aminopyrrolidin-1-yl)-N-(3-methoxy-4-((4-((2-methyl-6-(methylcarbamoyl)phenyl)amino)-5-(trifluoromethyl)pyrimidin-2-yl)amino)phenyl) adamantan-1-carboxamide] |
| 5.67 | – | – | 6.81 | CNC(=O)c1cccc(C)c1Nc1nc(Nc2ccc(C3CCN([C@H]4C5CC6CC4C[C@](O)(C6)C5)CC3)cc2OC)ncc1C(F)(F)F [Compound 32, 2-((2-((4-(1-((trans)-5-hydroxyadamantan-2-yl)piperidin-4-yl)-2-methoxyphenyl)amino)-5-(trifluoromethyl)pyrimidin-4-yl)amino)-N,3-dimethylbenzamide] |
| 5.69 | – | – | 7.00 | CNC(=O)c1cccc(C)c1Nc1nc(Nc2ccc(C3CCN([C@H]4C5CC6CC4C[C@@](O)(C6)C5)CC3)cc2OC)ncc1C(F)(F)F [Compound 33, 2-((2-((4-(1-((cis)-5-hydroxyadamantan-2-yl)piperidin-4-yl)-2-methoxyphenyl)amino)-5-(trifluoromethyl)pyrimidin-4-yl)amino)-N,3-dimethylbenzamide] |
| 5.79 | – | – | 6.37 | COc1cc(C2CCN([C@H]3C4CC5CC3C[C@](O)(C5)C4)CC2)ccc1Nc1ncc(C(F)(F)F)c(Nc2c(C)cccc2C(N)=O)n1 [Compound 34, 2-((2-((4-(1-((trans)-5-hydroxyadamantan-2-yl)piperidin-4-yl)-2-methoxyphenyl)amino)-5-(trifluoromethyl)pyrimidin-4-yl)amino)-3-methylbenzamide] |
| 5.84 | – | – | 6.38 | COc1cc(C2CCN([C@H]3C4CC5CC3C[C@](O)(C5)C4)CC2)ccc1Nc1ncc(C(F)(F)F)c(Nc2c(C)cccc2C(N)=O)n1 [Compound 35, 2-((2-((4-(1-((cis)-5-hydroxyadamantan-2-yl)piperidin-4-yl)-2-methoxyphenyl)amino)-5-(trifluoromethyl)pyrimidin-4-yl)amino)-3-methylbenzamide] |
| – | – | 7.21 | – | CNC(=O)c1cccc(C)c1Nc1nc(Nc2ccc(N3CCN([C@H]4C5CC6CC4C[C@@](O)(C6)C5)CC3)cc2OC)ncc1Cl [Compound 36, 2-((5-chloro-2-((4-(4-((trans)-5-hydroxyadamantan-2-yl)piperazin-1-yl)-2-methoxyphenyl)amino)-pyrimidin-4-yl)amino)-N,3-dimethylbenzamide] |
| – | – | 7.36 | – | CNC(=O)c1cccc(C)c1Nc1nc(Nc2ccc(N3CCN([C@H]4C5CC6CC4C[C@](C(=O)OC)(C6)C5)CC3)cc2OC)ncc1C(F)(F)F [Compound 37, methyl (trans)-4-(4-(3-methoxy-4-((4-((2-methyl-6-(methylcarbamoyl)phenyl)amino)-5-(trifluoromethyl)pyrimidin-2-yl)amino)phenyl)piperazin-1-yl) adamantan-1-carboxylate] |
| – | – | 7.15 | – | CNC(=O)c1cccc(C)c1Nc1nc(Nc2ccc(N3CCN([C@H]4C5CC6CC4C[C@@](C(=O)OC)(C6)C5)CC3)cc2OC)ncc1C(F)(F)F [Compound 38, methyl (cis)-4-(4-(3-methoxy-4-((4-((2-methyl-6-(methylcarbamoyl)phenyl)amino)-5-(trifluoromethyl)pyrimidin-2-yl)amino)phenyl)piperazin-1-yl) adamantan-1-carboxylate] |
| – | – | 7.24 | – | CNC(=O)c1cccc(C)c1Nc1nc(Nc2ccc(N3CCN([C@H]4C5CC6CC4C[C@](C(=O)O)(C6)C5)CC3)cc2OC)ncc1C(F)(F)F [Compound 39, (trans)-4-(4-(3-methoxy-4-((4-((2-methyl-6-(methylcarbamoyl)phenyl)amino)-5-(trifluoromethyl)pyrimidin-2-yl)amino)phenyl)piperazin-1-yl) adamantan-1-carboxylic acid] |
| – | – | 7.23 | – | CNC(=O)c1cccc(C)c1Nc1nc(Nc2ccc(N3CCN([C@H]4C5CC6CC4C[C@](C(=O)O)(C6)C5)CC3)cc2OC)ncc1C(F)(F)F [Compound 40, (cis)-4-(4-(3-methoxy-4-((4-((2-methyl-6-(methylcarbamoyl)phenyl)amino)-5-(trifluoromethyl)pyrimidin-2-yl)amino)phenyl)piperazin-1-yl) adamantan-1-carboxylic acid] |

— patent US12590070B2, “Adamantane derivatives as inhibitors of focal adhesion kinase” (SAMJIN PHARMACEUTICAL CO., LTD., priority 2019, dated 2026)
